Values after ≈ are worked out from the molar mass of the structure shown. Values joined by “and” are separate entries in the source; they are usually repeats but may differ in a detail not shown here. Identical values can stand only once. “Also recorded” adds a separate entry of the source. Like-named read-outs stand apart in the source and are kept apart here.
Columns and labels:
[1] = test system: A549, DU145, HUVEC, SF268 and SKOV3 cells; test: Cytometrix cell morphology-based screen; parameters: species or system human; conditions: for Cytometrix phenotype (PCA trajectory): 6 nM to 40 μM; for EC50: Homo sapiens, read-out: Approximate EC50 (distance in PCA space from DMSO controls); for Potency in Cytometrix relative to parent compound (fold lower): linker analog vs parent, data not shown
Procedure: SKOV3 (ovarian epithelial cancer), A549 (lung epithelial cancer), and SF268 (central nervous system epithelial cancer) were chosen for their broad genetic diversity and obtained from the National Institutes of Health. These human cells were grown and maintained in RMPI medium (Mediatech, Herndon, Virginia, United States) with 5% fetal calf serum (FBS, HyClone, Logan, Utah, United States). DU145 (prostate epithelial cancer) cells ( ATTC, Manassas, Virginia, United States) were maintained in MEM with 5% FBS. HUVEC cells (VEC Technologies, Rensselaer, New York, United States) were maintained in MCDB131 medium (VEC Technologies) with 10% FBS. For the assays 1,000–1,800 trypsinized (Mediatech) cells per well (depending on cell type) were plated in 384-well plates (Corning Costar, Acton, Massachusetts, United States) using a Multidrop (Thermo Labsystems, Beverly, Massachusetts, United States) and incubated for 24 h, the approximate doubling time. Six cell plates were made for each cell line.
Compound stocks were maintained in DMSO. Compound information was stored in ActivityBase (ID Business Solutions, Guildford, United Kingdom). Compounds were serially diluted in 384-well drug plates to achieve eight concentrations diluting 3× in DMSO between wells using a Multimek (Beckman Coulter, Fullerton, California, United States). Wells were reserved on every drug plate for negative and positive controls. Negative-control wells contained DMSO only and the positive-control wells received a titration of paclitaxel, a tubulin stabilizer (Sigma-Aldrich-Fluka, St. Louis, Missouri, United States). […] Small molecules were tested at 40 μM on cells based on the logic that cellular effects on cells at […] concentration are most likely nonspecific and that we would most likely get a full-dose response after eight 3-fold dilutions (6 nM to 40 μM final concentrations).
Compounds were added to cell plates from drug plates. Compound mixed with medium was added to the cells to achieve a 0.4% DMSO concentration on prepared cell plates using a PlateTrak (CCS Packard, Torrance, California, United States). Treated cells were incubated for another 24 h, the compound exposure time.
Cells were stained for visualization of the nuclei, Golgi apparatus, and microtubules. Cells were fixed with 4% formaldehyde (Polysciences, Warrington, Pennsylvania, United States) for 1 h; washed in TBS (Teknova, Half Moon Bay, California, United States); blocked in 0.01% Triton X-100 (ICN Biomedicals, Irvine, California, United States) and 1% BSA in TBS (Teknova) and then left to incubate for 1 h; stained with 0.01% Triton X-100, 0.1% BSA, 5 μg/ml Hoechst 33342 (Molecular Probes, Eugene, Oregon, United States), 5 μg/ml FITC-Lectin Lens Culinaris (Sigma-Aldrich-Fluka), and 3 μg/ml Rhodamine Red–labeled monoclonal antibody DM1α (courtesy of Tim Stearns) for 1 h; and then washed in TBS. All of these steps were performed with a PlateTrak using an ELx405 microplate washer (Bio-Tek Instruments, Winooski, Vermont, United States). This was done in triplicate for each cell line.
Cells were imaged on an inverted Axiovert 100M epifluorescent microscope (Carl Zeiss, Oberkochen, Germany) with a 5× objective and a Xenon lamp (Sutter Instruments, Novato, California, United States). A 5× magnification was chosen (rather than 40×) primarily as a function of the need to acquire a large number of individual cells in order to gather statistically relevant data on relatively rare subpopulations. The number of cells in a randomly acquired 40× image is not sufficient to make meaningful statistical measurements across many cells. Metamorph (Universal Imaging, Downingtown, Pennsylvania, United States) was used to control the motorized x, y, z stage (Prior Scientific, Rockland, Massachusetts, United States) that moved the plate to each well, autofocused, and took three successive fluorescent images with an Orca 100 camera (Hamamatsu, Hamamatsu City, Japan). […]

protein kinase B = target: T1, protein kinase B (Homo sapiens, UniProt P31749); test: Kinase disk assay (32P transfer to peptide), PKB; type: biochemical; conditions: 25 min, read-out: Relative activity @ 1 µM inhibitor PKB
T1 construct: purchased Upstate Cell Signaling Specialties
T1 sequence (P31749 whole entry, species assumed): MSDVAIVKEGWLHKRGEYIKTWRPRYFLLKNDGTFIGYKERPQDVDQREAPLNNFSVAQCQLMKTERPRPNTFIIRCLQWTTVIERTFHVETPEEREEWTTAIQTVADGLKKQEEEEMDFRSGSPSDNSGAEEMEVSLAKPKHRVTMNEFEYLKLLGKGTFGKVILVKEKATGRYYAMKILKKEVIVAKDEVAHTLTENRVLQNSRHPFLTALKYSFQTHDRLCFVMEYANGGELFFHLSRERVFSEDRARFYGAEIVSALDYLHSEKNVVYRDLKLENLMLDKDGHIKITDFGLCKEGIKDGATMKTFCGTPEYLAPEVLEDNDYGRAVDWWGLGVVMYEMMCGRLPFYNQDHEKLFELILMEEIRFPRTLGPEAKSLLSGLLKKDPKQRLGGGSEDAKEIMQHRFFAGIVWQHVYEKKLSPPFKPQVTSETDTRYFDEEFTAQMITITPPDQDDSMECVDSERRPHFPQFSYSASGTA
Procedure: (§1) Fyn and p38 kinases were expressed in bacteria and purified as previously described. Protein kinase A and Protein kinase B were obtained commercially (Upstate Cell Signaling Specialties Charlottesville, Virginia, United States). […] Reaction mixtures (27 μl) were spotted onto a phosphocellulose disk and washed with 0.5% H3PO4. The transfer of ^32P was measured by standard scintillation counting. […] When the IC50 value fell between two measured concentrations, it was calculated based on the assumption of an inversely proportional relationship between inhibitor concentration and counts per minute between the two data points.
(§2) IC50 values against Fyn and p38 are given (left), and percentage activity of PKA and PKB in presence of the inhibitors are given (right). Kinase activity was determined using a standardized disk assay based on the P^32 transfer to a synthetic peptide (See Materials and Methods). […] Peptide subrate sequences for each kinase are shown below:
bzRPRTSSF (100 µM) was used as the susbtrate for PKB.

protein kinase A = target: T2, protein kinase A (Homo sapiens, UniProt P17612); test: Kinase disk assay (32P transfer to peptide), PKA; type: biochemical; conditions: remaining kinase activity
T2 construct: purchased Upstate Cell Signaling Specialties
Procedure: as §1, §2
bzRRASLG (100 µM) was used as the susbtrate for PKA.

p38-α = target: T3, p38-α (Homo sapiens, UniProt Q16539); test: Kinase disk assay (32P transfer to peptide), p38; type: biochemical; conditions: Table S3; […] 100 µM substrate, 11 nM [γ-32P]ATP
T3 construct: made in house; host or cells: bacteria
T3 sequence (Q16539 whole entry): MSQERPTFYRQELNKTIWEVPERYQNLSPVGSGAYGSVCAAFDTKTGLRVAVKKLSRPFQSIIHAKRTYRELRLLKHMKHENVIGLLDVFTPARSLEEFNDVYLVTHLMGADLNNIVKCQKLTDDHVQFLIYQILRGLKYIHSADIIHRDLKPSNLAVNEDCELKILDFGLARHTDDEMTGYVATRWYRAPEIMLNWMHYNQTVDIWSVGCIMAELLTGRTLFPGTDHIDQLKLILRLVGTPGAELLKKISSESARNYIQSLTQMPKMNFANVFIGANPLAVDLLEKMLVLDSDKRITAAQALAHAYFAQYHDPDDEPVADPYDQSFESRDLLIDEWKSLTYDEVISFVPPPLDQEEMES
Procedure: as §1, §2
[…] (100 µM) was used as the substrate for p38.

[2] = Solubility limit in the CBR1 assay; type: physicochemical
human CBR1 = target: T4, human CBR1 (Homo sapiens, UniProt P16152); test: CBR1 assay (NADPH-dependent reduction of menadione, spectrophotometric)
T4 sequence (P16152 1-277): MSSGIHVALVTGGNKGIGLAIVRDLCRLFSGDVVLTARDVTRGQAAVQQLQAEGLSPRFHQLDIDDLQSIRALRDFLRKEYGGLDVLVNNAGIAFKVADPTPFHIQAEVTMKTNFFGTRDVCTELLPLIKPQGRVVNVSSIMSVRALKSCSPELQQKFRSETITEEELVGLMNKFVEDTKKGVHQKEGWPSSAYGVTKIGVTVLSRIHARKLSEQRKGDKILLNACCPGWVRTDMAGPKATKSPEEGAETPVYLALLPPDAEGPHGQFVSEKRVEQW
Procedure: CBR1 activity was determined spectrophotometrically at 25 °C. The standard assay mixture consisted of 50 mM sodium phosphate (pH 6.8), 200 μM NADPH, and 200 μM menadione in a total volume of 1 ml. Compounds were dissolved in DMSO as 100× stock solutions. Reactions were initiated by the addition of enzyme, and initial rates were determined by monitoring the disappearance of NADPH at 340 nM. Controls without substrates or enzyme were routinely included.

Fyn = target: T5, Fyn (Homo sapiens, UniProt P06241); test: Kinase disk assay (32P transfer to peptide), Fyn; type: biochemical
T5 construct: made in house; host or cells: bacteria
T5 sequence (P06241 whole entry, species assumed): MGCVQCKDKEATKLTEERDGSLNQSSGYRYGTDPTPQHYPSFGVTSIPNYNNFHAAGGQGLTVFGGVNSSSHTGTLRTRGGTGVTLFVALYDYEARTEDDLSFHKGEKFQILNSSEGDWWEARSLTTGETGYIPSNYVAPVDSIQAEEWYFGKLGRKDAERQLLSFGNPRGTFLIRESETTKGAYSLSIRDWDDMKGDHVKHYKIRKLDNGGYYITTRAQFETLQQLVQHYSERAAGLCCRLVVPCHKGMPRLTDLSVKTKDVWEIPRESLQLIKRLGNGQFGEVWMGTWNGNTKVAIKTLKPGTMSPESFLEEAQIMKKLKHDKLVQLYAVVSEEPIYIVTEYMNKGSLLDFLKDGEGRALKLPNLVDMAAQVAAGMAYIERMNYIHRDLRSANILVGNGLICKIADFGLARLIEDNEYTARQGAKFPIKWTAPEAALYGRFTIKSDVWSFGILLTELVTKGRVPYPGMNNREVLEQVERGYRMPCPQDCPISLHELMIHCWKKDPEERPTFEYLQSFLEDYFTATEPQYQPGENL
Procedure: as §1, §2
[…] (100 µM) was used as the substrate for Fyn.

A549 cells [3] = test: Cell viability assay (alamarBlue reduction), daunorubicin combination; type: cell-based, human; conditions: for Cytotoxicity on A549 cells when used alone: 8 μM; for Enhancement of daunorubicin-mediated A549-cell killing: 8 μM compound with 440 nM daunorubicin
Description: To test this hypothesis, we measured the ability of hydroxy-PP-Me and PP-L to block CBR1-mediated metabolism of daunorubicin in A549 cells using cell killing as a measure of the cellular status of daunorubicin metabolism. […] Hydroxy-PP-Me induced a 25% enhancement of daunorubicin-mediated A549-cell killing consistent with its ability to inhibit CBR1-mediated daunorubicin metabolism. […] Although the observed 25% enhancement of daunorubicin-mediated cell killing is modest, the hydroxy-PP-Me dose dependence (Figure 5B) of this effect is further evidence that it is CBR1 mediated rather than a general toxic response.
A549 cells were purchased from ATCC and cultured in the F-12K medium with 10% of FBS. Cells were maintained at 37 °C in an atmosphere of 5% CO2. Adherant cells were released for passaging using an isotonic Trypsin solution (0.25% Trypsin, 0.02% Versene). Rabbit anti-human CBR1 antibody was obtained from Dr. Tsuchida. The CBR expression vector, pET-11aCR, was obtained from Dr. Wermuth.
(§3) Cell viability was determined by the alamarBlue reagent reduction assay in a 96-well culture plate, measuring the absorbance at 570 and 600 nm spectrophotometrically. The amount of PI-stained cells was estimated by measuring fluorescence following incubation with PI (5 μg/ml). For both experiments, data are shown as the percentages of nontreated control cells.

A549 cells [4] = test: PI-stained cell assay, serum-withdrawal-induced apoptosis; type: cell-based, human; conditions: for Protection against serum-withdrawal-induced apoptosis (PI staining): 65 h following serum withdrawal; for Enhancement of induction of apoptosis by cell stresses: A549, interferon-γ + Fas ligand, H2O2, interleukin-1β, serum withdrawal, interleukin-1β + serum withdrawal, data not shown
Description: We chose to focus on signals that induce apoptosis in A549 adenocarcinoma cells because this endpoint is important for many cell-fate decisions, including those relevant to cancer and inflammation. CBR1 has been directly implicated in redox reactions leading to H2O2 generation, a known stimulus for apoptosis. A549 cells were subjected to a wide range of cell stresses previously shown to induce apoptosis: (1) interferon-γ + Fas ligand, (2) H2O2, (3) interleukin-1β, (4) serum withdrawal, or (5) interleukin-1β + serum withdrawal.
as §3

[5] = 1 µM inhibitor, remaining kinase activity
[6] = IC50 against CBR1, 200 μM NADPH, 200 μM menadione, pH 6.8, 25 °C
[7] = Table S3, LEEIYGEFKKK 100 µM substrate, 11 nM [γ-32P]ATP, read-out: IC50 (nM) Fyn
[8] = read-out: IC50 against Fyn (Figure 3)

SMILES	Cytometrix phenotype (PCA trajectory) ([1]; 24 h, five cell types)	Relative activity @ 1 µM inhibitor PKA (protein kinase A)	IC50 (p38-α)	activity at 1 µM (protein kinase B; [5])	IC50 (human CBR1; [6])	IC50 (Fyn; [8])	Protection against serum-withdrawal-induced apoptosis (PI staining) (A549 cells [4]; A549 cells)	further results
COC(=O)[C@@]1(O)C[C@H]2O[C@]1(C)n1c3ccccc3c3c4c(c5c6ccccc6n2c5c31)C(=O)NC4 [K252a, reference compound]	dose-dependent morphological changes in A549, DU145, HUVEC, and SF268 cells but not SKOV3 cells	–	–	–	–	–	–	–
CC(C)(C)n1nc(-c2ccc(Cl)cc2)c2c(N)ncnc21 [PP2, 1-tert-butyl-3-(4-chlorophenyl)-1H-pyrazolo[3,4-d]pyrimidin-4-amine, reference compound]	–	–	–	–	–	–	–	EC50 ([1]; 24 h): ~129000 nM; activity at 1 µM (protein kinase B): 103%
CC(C)(C)n1nc(-c2ccccc2)c2c(N)ncnc21 [PP, 1-tert-butyl-3-phenyl-1H-pyrazolo[3,4-d]pyrimidin-4-amine, reference compound]	phenotypic profile comparable to PP2	92%	4000 nM	92%	> 200000 nM	50 nM	–	solubility [2]: 200 µM (≈ 53.5 µg/mL); Inhibition of CBR1 activity (human CBR1; up to solubility limit of 200 μM): no inhibition; IC50 (Fyn; [7]): 110 nM
CCOCCn1nc(-c2ccccc2)c2c(N)ncnc21 [PP-L]	–	–	–	–	–	–	does not	Potency in Cytometrix relative to parent compound (fold lower) [1]: approximately 5 fold; Cytotoxicity on A549 cells when used alone (A549 cells [3]): minimal cytotoxicity; Enhancement of daunorubicin-mediated A549-cell killing (A549 cells [3]): no enhancement of cell killing
COc1cccc2c1C(=O)c1c(O)c3c(c(O)c1C2=O)C[C@@](O)(C(C)=O)C[C@@H]3O[C@H]1C[C@H](N)[C@H](O)[C@H](C)O1 [daunorubicin, reference compound]	–	–	–	–	–	–	–	IC50 (A549 cells [3]; Homo sapiens, A549, read-out: Approximate IC50 for cell killing as a single agent): ~440 nM
CC(C)(C)n1nc(-c2cccc(O)c2)c2c(N)ncnc21 [hydroxy-PP, 3-(1-tert-butyl-4-amino-1H-pyrazolo[3,4-d]pyrimidin-3-yl)phenol]	distinct from the phenotypes induced by kinase inhibitors and the microtubule depolymerization inhibitors	110%	17000 nM	91%	788 nM	5 nM	able to block A549-cell apoptosis	EC50 ([1]; 24 h treatment, five cell types, concentration of Figure 1D, called approximately the EC50): ~400 nM; IC50 (human CBR1; IC50 against CBR1, re-screen of the screening collection, data not shown): < 1000 nM; Enhancement of induction of apoptosis by cell stresses (A549 cells [4]): no enhancement
CCOCCn1nc(-c2cccc(O)c2)c2c(N)ncnc21 [hydroxy-PP-L]	–	–	–	–	–	–	protects A549 cells against serum-withdrawal-induced apoptosis, although to a lesser extent than hydroxy-PP-Me	Potency in Cytometrix relative to parent compound (fold lower) [1]: approximately 5 fold; Protection against serum-withdrawal-induced apoptosis (PI staining) (A549 cells [4]; A549 cells, listed as Hydroxy-PP-L): dose-dependent decrease in PI staining
CNc1ncnc2c1c(-c1cccc(O)c1)cn2C(C)C [hydroxy-PP-Me, 3-(7-isopropyl-4-(methylamino)-7H-pyrrolo[2,3-d]pyrimidin-5yl)phenol]	–	106%	> 50000 nM	95%	759 nM	70000 nM and > 70000 nM	dose-dependent decrease in PI staining; also recorded: almost completely protected against apoptosis	Cytotoxicity on A549 cells when used alone (A549 cells [3]): minimal cytotoxicity; Enhancement of daunorubicin-mediated A549-cell killing (A549 cells [3]): 25%; Cell viability with concomitant daunorubicin treatment (A549 cells [3]; 1–8 μM compound plus daunorubicin): dose-dependent decrease in cell viability; IC50 (Fyn; [7]): > 50000 nM; Enhancement of induction of apoptosis by cell stresses (A549 cells [4]): no enhancement; Apoptosis induced by serum withdrawal blocked (A549 cells [4]; A549 cells): more than 90%
CC(=O)O[C@H]1C(=O)[C@@]2(C)[C@H]([C@H](OC(=O)c3ccccc3)[C@]3(O)C[C@H](OC(=O)[C@H](O)[C@@H](NC(=O)c4ccccc4)c4ccccc4)C(C)=C1C3(C)C)[C@]1(OC(C)=O)CO[C@@H]1C[C@@H]2O [paclitaxel, reference compound]	pronounced and highly reproducible trajectory	–	–	–	–	–	–	–

Source: article PMC1073692, “An Unbiased Cell Morphology–Based Screen for New, Biologically Active Small Molecules” (PLoS Biology, 2005)
